Drawing on patent US20260193170A1 (University of Copenhagen, priority 2022, published 2026), this text covers Ki for 27 compounds.

For the test, the target named is T1, human Keap1 Kelch domain (Homo sapiens, UniProt Q14145).
T1 construct: human Keap1 Kelch domain (residue 321-609, UniProt Q14145); made in house; host or cells: Escherichia coli BL21 (DE3) pLysS, pRSET A vector
The test is described as follows: Fluorescence polarization (FP) competition assay, Cy5-Nrf2 peptide probe. Conditions: heterologous competition FP; Keap1 Kelch 14 nM, Cy5-Nrf2 probe 3 nM, 4% DMSO; mean ± SEM. Type of test: binding. The protocol:
The binding affinities between the fluorescent peptide probe Cy5-Nrf2 (SEQ: Cy5-[…]-NH2) and the human Keap1 Kelch domain were determined as Kd values by saturation binding experiments, where increasing concentrations of Keap1 (0-300 nM) were added to a fixed concentration of peptide probe (3 nM). The assay was performed in a 1× HBSTET buffer (10 mM HEPES, 150 mM NaCl, 0.005% Tween20, 3 mM ethylenediaminetetraacetic acid (EDTA), 1 mM TCEP, pH=7.4) using black flat-bottom 384-well plates (Corning Life Sciences, NY), a volume of 30 μL/well, and a final DMSO concentration of 4% or 8%. The assay plate was spun down to ascertain proper mixing and removal of potential air bubbles and incubated for 10-15 min at room temperature before measuring the FP levels on a Safire2 plate reader (Tecan, Mannedorf, Switzerland). The g-factor was adjusted at each experiment so that a series of three blank wells containing probe but no Keap1 Kelch defined the baseline FP value. The Cy5-Nrf2 probe was measured at excitation/emission values of 635:670 nm. The FP values were fitted to the one-site specific binding equation: Y=Bmax×X/(Kd+X), with Bmax being the maximal FP value, X the Keap1 Kelch concentration, and Y the variable FP values. The Kd values were derived from the resulting binding saturation curve as being equal to the Keap1 Kelch concentration, where the curve is half-saturated.
The affinities between nonfluorescent small molecule Keap1 inhibitors and Keap1 Kelch were determined as Ki values in a heterologous competition FP binding assay. This was done by adding increasing concentration of test compound (2-fold serial dilutions, 12 concentrations tested per inhibition curve as duplicates) to a fixed concentration of Keap1 Kelch (14 nM) and the Cy5-Nrf2 peptide probe (3 nM) in the same HBSTET buffer and conditions as described above (final DMSO concentrations were 4%). FP values were fitted to the equation Y=Bottom+(Top−Bottom)/[1+(10^HillSlope×(log IC50−X))], where X is the logarithmic value of compound concentration. Hereby, the IC50 value was obtained, which together with the […] value and probe and Keap1 Kelch concentrations was used to calculate the theoretical competitive inhibition constant, the Ki value. 43 Ki values are shown as mean±SEM (standard error of mean) if based on two or more individual measurements.
A general note: Fluorescence polarisation rises when a labelled molecule tumbles more slowly, as on binding a larger partner.

T1 sequence (Q14145 321-609): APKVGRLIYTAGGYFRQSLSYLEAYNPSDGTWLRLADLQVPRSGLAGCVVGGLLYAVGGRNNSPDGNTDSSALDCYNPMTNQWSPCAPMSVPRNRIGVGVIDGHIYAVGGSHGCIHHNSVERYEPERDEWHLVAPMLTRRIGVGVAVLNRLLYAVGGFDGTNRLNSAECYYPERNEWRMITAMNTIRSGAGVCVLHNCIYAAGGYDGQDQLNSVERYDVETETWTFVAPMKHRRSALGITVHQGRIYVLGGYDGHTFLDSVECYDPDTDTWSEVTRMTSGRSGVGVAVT

For the compound `O=C(O)CC(c1ccc2c(c1)OC(F)(F)O2)c1ccc2ccc(OCC(=O)NC3C=CCCC3)cc2c1` (stereo not drawn) [4f, 3-(7-(2-(Cyclohex-2-en-1-ylamino)-2-oxoethoxy)naphthalen-2-yl)-3-(2,2-difluorobenzo[d][1,3]dioxol-5-yl)propanoic acid], the Ki (commonly a dissociation constant, usually derived from enzyme kinetics or from competition with a known ligand) is 0.03 ± 0.002 µM.
As for `O=C(O)CC(c1ccc2ccc(OCC(=O)NC3C=CCCC3)cc2c1)c1ccc2occc2c1` (stereo not drawn) [4g, 3-(Benzofuran-5-yl)-3-(7-(2-(cyclohex-2-en-1-ylamino)-2-oxoethoxy)naphthalen-2-yl)propanoic acid], the Ki was 0.021 ± 0.002 µM.
In the case of `Cc1ccc(Cl)cc1C(CC(=O)O)c1ccc2ccc(OCC(=O)NC3C=CCCC3)cc2c1` (stereo not drawn) [4h, 3-(5-Chloro-2-methylphenyl)-3-(7-(2-(cyclohex-2-en-1-ylamino)-2-oxoethoxy)naphthalen-2-yl)propanoic acid] it was 0.048 ± 0.005 µM.
Then `Cc1cc2c(cc1C(CC(=O)O)c1ccc3ccc(OCC(=O)NC4C=CCCC4)cc3c1)OCCO2` (stereo not drawn) [4i, 3-(7-(2-(cyclohex-2-en-1-ylamino)-2-oxoethoxy)naphthalen-2-yl)-3-(7-methyl-2,3-dihydrobenzo[b][1,4]dioxin-6-yl)propanoic acid], with 0.017 ± 0.003 µM.
Then `O=C(O)CC(c1cccc(Cl)c1)c1ccc2ccc(OCC(=O)NC3C=CCCC3)cc2c1` (stereo not drawn) [4j, 3-(3-chlorophenyl)-3-(7-(2-(cyclohex-2-en-1-ylamino)-2-oxoethoxy)naphthalen-2-yl)propanoic acid], with 0.206 ± 0.015 µM; and `COc1ccc(C(CC(=O)O)c2ccc3ccc(OCC(=O)NC4C=CCCC4)cc3c2)c(C)c1` (stereo not drawn) [4k, 3-(7-(2-(cyclohex-2-en-1-ylamino)-2-oxoethoxy)naphthalen-2-yl)-3-(4-methoxy-2-methylphenyl)propanoic acid], with 0.017 ± 0.004 µM.
For `Cc1cc2c(cc1C(CC(=O)O)c1ccc3ccc(OCC(=O)NC4C=CCCC4)cc3c1)OC(F)(F)O2` (stereo not drawn) [4l, 3-(7-(2-(cyclohex-2-en-1-ylamino)-2-oxoethoxy)naphthalen-2-yl)-3-(2,2-difluoro-6-methylbenzo[d][1,3]dioxol-5-yl)propanoic acid], the Ki worked out at 0.016 ± 0.005 µM.
In the case of `Cc1cc2c(cc1C(CC(=O)O)c1ccc3ccc(OCC(=O)NC4C=CCCC4)cc3c1)CCO2` (stereo not drawn) [4n, 3-(7-(2-(cyclohex-2-en-1-ylamino)-2-oxoethoxy)naphthalen-2-yl)-3-(6-methyl-2,3-dihydrobenzofuran-5-yl)propanoic acid] it was 0.018 ± 0.002 µM; in that of `O=C(O)CC(c1ccc2c(c1)OCO2)c1ccc2ccc(OCC(=O)N[C@H]3C[C@@H]4CC[C@H]3C4)cc2c1` (stereo partly drawn) [5a, 3-(benzo[d][1,3]dioxol-5-yl)-3-(7-(2-(((1S,2S,4R)-bicyclo[2.2.1]heptan-2-yl)amino)-2-oxoethoxy)naphthalen-2-yl)propanoic acid], 0.02 ± 0.003 µM.
Consider `O=C(O)CC(c1ccc2ccc(OCC(=O)N[C@H]3C[C@@H]4CC[C@H]3C4)cc2c1)c1cc2c(cc1Cl)OCO2` (stereo partly drawn) [5b, 3-(7-(2-(((1S,2S,4R)-bicyclo[2.2.1]heptan-2-yl)amino)-2-oxoethoxy)naphthalen-2-yl)-3-(6-chlorobenzo[d][1,3]dioxol-5-yl)propanoic acid], for which the Ki came out at 0.004 µM.
Then `Cc1cc2c(cc1C(CC(=O)O)c1ccc3ccc(OCC(=O)N[C@H]4C[C@@H]5CC[C@H]4C5)cc3c1)OCO2` (stereo partly drawn) [5c, 3-(7-(2-(((1S,2S,4R)-bicyclo[2.2.1]heptan-2-yl)amino)-2-oxoethoxy)naphthalen-2-yl)-3-(6-methylbenzo[d][1,3]dioxol-5-yl)propanoic acid], with 0.007 µM; and `Cc1cc2c(cc1C(CC(=O)O)c1ccc3ccc(OCC(=O)N[C@H]4C[C@@H]5CC[C@H]4C5)cc3c1)OCCO2` (stereo partly drawn) [5d, 3-(7-(2-(((1S,2S,4R)-bicyclo[2.2.1]heptan-2-yl)amino)-2-oxoethoxy)naphthalen-2-yl)-3-(7-methyl-2,3-dihydrobenzo[b][1,4]dioxin-6-yl)propanoic acid], with ~0.001 µM.
In the case of `O=C(O)CC(c1ccc2c(c1)OCO2)c1ccc2ccc(OCC(=O)NC3CC=CCC3)cc2c1` (stereo not drawn) [6a, 3-(Benzo[d][1,3]dioxol-5-yl)-3-(7-(2-(cyclohex-3-en-1-ylamino)-2-oxoethoxy)naphthalen-2-yl)propanoic acid] it was 0.076 ± 0.009 µM; in that of `O=C(O)CC(c1ccc2c(c1)OCO2)c1ccc2ccc(OCC(=O)NC3CCC(F)(F)CC3)cc2c1` (stereo not drawn) [6b, 3-(benzo[d][1,3]dioxol-5-yl)-3-(7-(2-((4,4-difluorocyclohexyl)amino)-2-oxoethoxy)naphthalen-2-yl)propanoic acid], 0.08 ± 0.01 µM.
On to `CC(C)CNC(=O)COc1ccc2ccc(C(CC(=O)O)c3ccc4c(c3)OCO4)cc2c1` (stereo not drawn) [6c, 3-(benzo[d][1,3]dioxol-5-yl)-3-(7-(2-(isobutylamino)-2-oxoethoxy)naphthalen-2-yl)propanoic acid], for which the Ki worked out at 0.138 ± 0.024 µM.
In the case of `O=C(O)CC(c1ccc2c(c1)OCO2)c1ccc2ccc(OCC(=O)NC3CCCC3)cc2c1` (stereo not drawn) [6d, 3-(benzo[d][1,3]dioxol-5-yl)-3-(7-(2-(cyclopentylamino)-2-oxoethoxy)naphthalen-2-yl)propanoic acid] it was 0.062 ± 0.005 µM.
In the case of `O=C(O)CC(c1ccc2c(c1)OCO2)c1ccc2ccc(OCC(=O)NC34CC5CC(CC(C5)C3)C4)cc2c1` [6e, 3-(7-(2-(((1S,3s)-adamantan-1-yl)amino)-2-oxoethoxy)naphthalen-2-yl)-3-(benzo[d][1,3]dioxol-5-yl)propanoic acid], the Ki was 0.516 ± 0.115 µM.
Then `CC1(NC(=O)COc2ccc3ccc(C(CC(=O)O)c4ccc5c(c4)OCO5)cc3c2)CCCCC1` (stereo not drawn) [6f, 3-(benzo[d][1,3]dioxol-5-yl)-3-(7-(2-((1-methylcyclohexyl)amino)-2-oxoethoxy)naphthalen-2-yl)propanoic acid], with 0.477 ± 0.07 µM.
Then `CC1(C)CCC(NC(=O)COc2ccc3ccc(C(CC(=O)O)c4ccc5c(c4)OCO5)cc3c2)CC1` (stereo not drawn) [6g, 3-(benzo[d][1,3]dioxol-5-yl)-3-(7-(2-((4,4-dimethylcyclohexyl)amino)-2-oxoethoxy)naphthalen-2-yl)propanoic acid], with 0.056 ± 0.007 µM.
In the case of `O=C(O)CC(c1ccc2c(c1)OCO2)c1ccc2ccc(OCC(=O)N[C@@H]3C[C@@H]4CC[C@H]3C4)cc2c1` (stereo partly drawn) [6h, 3-(benzo[d][1,3]dioxol-5-yl)-3-(7-(2-(((1S,2R,4R)-bicyclo[2.2.1]heptan-2-yl)amino)-2-oxoethoxy)naphthalen-2-yl)propanoic acid] it was 0.019 ± 0.003 µM; in that of `O=C(O)CC(c1ccc2c(c1)OCO2)c1ccc2ccc(OCC(=O)N[C@H]3CC[C@H](C(F)(F)F)CC3)cc2c1` (stereo partly drawn) [6i, 3-(benzo[d][1,3]dioxol-5-yl)-3-(7-(2-oxo-2-((trans-4-(trifluoromethyl)cyclohexyl)amino)ethoxy)naphthalen-2-yl)propanoic acid], 0.397 ± 0.041 µM.
As to `O=C(O)CC(c1ccc2c(c1)OCO2)c1ccc2ccc(OCC(=O)N[C@H]3CC[C@@H](C(F)(F)F)CC3)cc2c1` (stereo partly drawn) [6j, 3-(benzo[d][1,3]dioxol-5-yl)-3-(7-(2-oxo-2-((cis-4-(trifluoromethyl)cyclohexyl)amino)ethoxy)naphthalen-2-yl)propanoic acid], the Ki was 0.045 ± 0.001 µM.
Then `CCCC1CCCCN1C(=O)COc1ccc2ccc(C(CC(=O)O)c3ccc4c(c3)OCO4)cc2c1` (stereo not drawn) [6k, 3-(benzo[d][1,3]dioxol-5-yl)-3-(7-(2-oxo-2-(2-propylpiperidin-1-yl)ethoxy)naphthalen-2-yl)propanoic acid], with 0.063 ± 0.003 µM; and `O=C(O)CC(c1ccc2c(c1)OCO2)c1ccc2ccc(OCC(=O)Nc3ccccc3)cc2c1` (stereo not drawn) [6l, 3-(benzo[d][1,3]dioxol-5-yl)-3-(7-(2-oxo-2-(phenylamino)ethoxy)naphthalen-2-yl)propanoic acid], with 1.88 µM.
Then `CC(Oc1ccc2ccc(C(CC(=O)O)c3ccc4c(c3)OCO4)cc2c1)C(=O)NC1CCCCCC1` (stereo not drawn) [7a, 3-(Benzo[d][1,3]dioxol-5-yl)-3-(7-((1-(cycloheptylamino)-1-oxopropan-2-yl)oxy)naphthalen-2-yl)propanoic acid], with 0.153 ± 0.012 µM; and `CN(C(=O)COc1ccc2ccc(C(CC(=O)O)c3ccc4c(c3)OCO4)cc2c1)C1CCCCCC1` (stereo not drawn) [7b, 3-(benzo[d][1,3]dioxol-5-yl)-3-(7-(2-(cycloheptyl(methyl)amino)-2-oxoethoxy)naphthalen-2-yl)propanoic acid], with 0.129 ± 0.009 µM.
For the compound `CC(C(=O)O)C(c1ccc2c(c1)OCO2)c1ccc2ccc(OCC(=O)NC3CCCCCC3)cc2c1` (stereo not drawn) [7c, 3-(benzo[d][1,3]dioxol-5-yl)-3-(7-(2-(cycloheptylamino)-2-oxoethoxy)naphthalen-2-yl)-2-methylpropanoic acid], the Ki is 0.015 ± 0.001 µM.
